For 24 molecules, IC50, Activity and inhibition results are on record in ChEMBL document CHEMBL6182930, “Discovery of TBK1Molecular Glue Degraders as a Potential Strategy for the Treatment of Autosomal Dominant Polycystic Kidney Disease (ADPKD)” (J Med Chem, 2025).

Test [1] addresses T1, Serine/threonine-protein kinase TBK1 (Homo sapiens, UniProt Q9UHD2).
T1 sequence (Q9UHD2 whole entry): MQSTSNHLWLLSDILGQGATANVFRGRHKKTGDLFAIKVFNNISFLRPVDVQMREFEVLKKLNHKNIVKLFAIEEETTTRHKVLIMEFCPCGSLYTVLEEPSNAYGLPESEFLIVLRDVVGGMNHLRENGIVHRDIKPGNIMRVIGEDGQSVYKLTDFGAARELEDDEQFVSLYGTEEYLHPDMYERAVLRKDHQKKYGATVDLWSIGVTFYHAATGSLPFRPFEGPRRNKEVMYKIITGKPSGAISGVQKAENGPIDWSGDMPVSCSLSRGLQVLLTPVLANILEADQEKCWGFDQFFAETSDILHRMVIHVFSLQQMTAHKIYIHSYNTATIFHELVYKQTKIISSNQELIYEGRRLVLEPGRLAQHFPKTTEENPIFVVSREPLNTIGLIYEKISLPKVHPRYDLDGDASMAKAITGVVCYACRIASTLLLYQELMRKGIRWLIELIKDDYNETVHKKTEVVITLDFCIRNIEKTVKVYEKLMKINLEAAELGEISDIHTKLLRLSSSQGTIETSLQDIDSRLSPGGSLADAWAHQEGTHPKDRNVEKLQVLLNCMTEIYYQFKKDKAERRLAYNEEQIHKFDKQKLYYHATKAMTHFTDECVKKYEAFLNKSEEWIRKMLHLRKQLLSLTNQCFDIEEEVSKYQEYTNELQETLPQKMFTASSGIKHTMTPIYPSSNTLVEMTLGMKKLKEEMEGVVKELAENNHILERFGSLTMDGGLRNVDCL
The experiment in a line: Inhibition of TBK1-dependent SEAP reporter gene expression in LPS-stimulated human THP1-Blue ISG cells incubated for 24 hrs by QUANTI-Blue reagent based analysis. The format is cell-based. (A reporter such as luciferase makes a cellular process visible.)

The target of test [2] is Protein cereblon/Serine/threonine-protein kinase TBK1 (Homo sapiens) (UniProt Q9UHD2+Q96SW2). The experiment in a line: PROTAC activity at CRBN/TBK1 in human A549 cells assessed as induction of TBK1 degradation at 1 to 10 uM incubated for 16 hrs by Western blot analysis. The format is cell-based. Particulars: dose 1-10 µM.
Chain of Protein cereblon/Serine/threonine-protein kinase TBK1 (Homo sapiens) (Q96SW2 whole entry, looked up, one chain of several): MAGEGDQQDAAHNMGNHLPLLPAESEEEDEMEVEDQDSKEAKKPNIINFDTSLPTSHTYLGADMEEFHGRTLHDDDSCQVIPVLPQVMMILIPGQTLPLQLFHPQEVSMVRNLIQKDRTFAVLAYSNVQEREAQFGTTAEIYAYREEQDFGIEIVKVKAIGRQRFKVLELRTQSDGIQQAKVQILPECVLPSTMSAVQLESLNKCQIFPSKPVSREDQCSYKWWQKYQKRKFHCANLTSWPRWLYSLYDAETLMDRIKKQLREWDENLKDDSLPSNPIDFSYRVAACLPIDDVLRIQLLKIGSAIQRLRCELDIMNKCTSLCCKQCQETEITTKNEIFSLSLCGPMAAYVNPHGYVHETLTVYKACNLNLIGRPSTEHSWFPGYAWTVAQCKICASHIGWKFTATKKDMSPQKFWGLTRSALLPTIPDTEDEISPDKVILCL
For test [3], the target named is T2, E3 ubiquitin-protein ligase RNF126/Serine/threonine-protein kinase TBK1 (Homo sapiens, UniProt Q9UHD2+Q9BV68). The experiment in a line: Molecular glue activity at RNF126/TBK1 in human A549 cells assessed as induction of TBK1 degradation at 1 uM incubated for 16 hrs by Western blot analysis. The format is cell-based. A general note: A western blot detects proteins with antibodies after separation by electrophoresis.
T2 sequence (Q9BV68 2-311 partner limits assumed, one chain of several): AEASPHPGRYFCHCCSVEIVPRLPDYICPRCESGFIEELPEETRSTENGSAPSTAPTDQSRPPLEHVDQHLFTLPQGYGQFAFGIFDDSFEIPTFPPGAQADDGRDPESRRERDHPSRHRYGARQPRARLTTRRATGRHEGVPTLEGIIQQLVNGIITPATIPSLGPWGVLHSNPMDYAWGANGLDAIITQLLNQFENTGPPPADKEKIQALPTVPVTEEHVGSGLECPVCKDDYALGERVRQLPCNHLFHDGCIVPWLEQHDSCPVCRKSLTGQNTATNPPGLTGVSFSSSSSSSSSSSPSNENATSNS

Test [4] has as its target T2, E3 ubiquitin-protein ligase RNF126/Serine/threonine-protein kinase TBK1. The experiment in a line: Molecular glue activity at RNF126/TBK1 in HEK293T cells assessed as induction of TBK1 degradation at 1 uM incubated for 16 hrs by Western blot analysis. The format is cell-based.
The test system of test [5] is MDCK. The experiment in a line: Inhibition of cystogenesis in forskolin-stimulated MDCK cells assessed as reduction in cyst growth at 100 nM administrated for 8 days starting from day 4 to day 12 by imaging analysis. Particulars: Canis lupus familiaris, time 8.0 day. The test is classed as functional, cell-based.

Each structure is given as a SMILES string. pIC50: −log10 of the molar value. Calls of active or inactive are those of the source. No cut-off for these calls is given here.

What is called pIC50 is −log10 of the IC50, conventionally taken in molar units. Lower therefore signals a large IC50. The molecule `Cc1ncsc1-c1ccc(CNC(=O)[C@@H]2C[C@@H](O)CN2C(=O)[C@@H](NC(=O)COCCCOCCCCOCCCOc2ccc(Nc3ncc(Br)c(NCCCN(C)C(=O)C4CCC4)n3)cc2)C(C)(C)C)cc1` gave a pIC50 in test [1] of 7.12.

Consider `O=C1CCC(N2C(=O)c3cccc(NCCOCCOCCC(=O)N4CCN(Cc5cccc(Nc6ncc7ccn(CCCNC(=O)C8CCC8)c7n6)c5)CC4)c3C2=O)C(=O)N1` (stereo unspecified), for which the result in test [2] was inactive.

For the molecule `O=C1CCC(N2C(=O)c3ccc(OCCCCCC(=O)N4CCN(Cc5cccc(Nc6ncc7ccn(CCCNC(=O)C8CCC8)c7n6)c5)CC4)cc3C2=O)C(=O)N1` (stereo unspecified), the Activity result in test [2] is on record as “Active; Compound Exhibited Only Weak Degradation Compared To Control 3I”.

As to `O=C1CCC(N2C(=O)c3ccc(OCCCCCCCC(=O)N4CCN(Cc5cccc(Nc6ncc7ccn(CCCNC(=O)C8CCC8)c7n6)c5)CC4)cc3C2=O)C(=O)N1` (stereo unspecified), the outcome in test [2] was inactive.

For the molecule `COc1ccc(C(=O)/C=C(\C#N)C(=O)N2CCN(Cc3cccc(Nc4ncc5ccn(CCCNC(=O)C6CCC6)c5n4)c3)CC2)cc1`, the outcome in test [3] and in test [4] was inactive.

As to `O=C1CCC(N2C(=O)c3cccc(NCCCC(=O)N4CCN(Cc5cccc(Nc6ncc7ccn(CCCNC(=O)C8CCC8)c7n6)c5)CC4)c3C2=O)C(=O)N1` (stereo unspecified), the Activity result in test [2] is given as “Active; Compound Exhibited Only Weak Degradation Compared To Control 3I”.

As to `COc1ccc(C(=O)CCC(=O)N2CCN(CC3CCN(Cc4cccc(Nc5ncc6ccn(CCCNC(=O)C7CCC7)c6n5)c4)CC3)CC2)cc1`, the result in test [3] and in test [4] was inactive.

As for `COc1ccc(C(=O)/C=C/C(=O)N2CCN(Cc3ccc(Nc4ncc5ccn(CCCNC(=O)C6CCC6)c5n4)cc3)CC2)cc1`, the result in test [3] and in test [4] was Active.

Take `COc1ccc(C(=O)/C(C#N)=C/C(=O)N2CCN(Cc3cccc(Nc4ncc5ccn(CCCNC(=O)C6CCC6)c5n4)c3)CC2)cc1`: the outcome in test [3] and in test [4] was inactive.

As to `O=C1CCC(N2C(=O)c3ccc(OCCCCCCCCCC(=O)N4CCN(Cc5cccc(Nc6ncc7ccn(CCCNC(=O)C8CCC8)c7n6)c5)CC4)cc3C2=O)C(=O)N1` (stereo unspecified), the outcome in test [2] was inactive.

In the case of `Cc1ncsc1-c1ccc(CNC(=O)[C@@H]2C[C@@H](O)CN2C(=O)[C@H](NC(=O)CCCCCCC(=O)N2CCN(Cc3cccc(Nc4ncc5ccn(CCCNC(=O)C6CCC6)c5n4)c3)CC2)C(C)(C)C)cc1`, the result in test [2] was inactive.

`O=C1CCC(N2C(=O)c3ccc(OCCCCCCCCCCCC(=O)N4CCN(Cc5cccc(Nc6ncc7ccn(CCCNC(=O)C8CCC8)c7n6)c5)CC4)cc3C2=O)C(=O)N1` (stereo unspecified): the result in test [2] was inactive.

As to `COc1ccc(C(=O)/C=C/C(=O)N2CCN(C)CC2)cc1`, the outcome in test [3] and in test [4] was inactive.

In the case of `Cc1ncsc1-c1ccc(CNC(=O)[C@H]2C[C@H](O)CN2C(=O)[C@@H](NC(=O)COCC(=O)N2CCN(Cc3cccc(Nc4ncc5ccn(CCCNC(=O)C6CCC6)c5n4)c3)CC2)C(C)(C)C)cc1`, the outcome in test [2] was inactive.

On to `O=C1CCC(N2C(=O)c3cccc(NCCCCCCCC(=O)N4CCN(Cc5cccc(Nc6ncc7ccn(CCCNC(=O)C8CCC8)c7n6)c5)CC4)c3C2=O)C(=O)N1` (stereo unspecified), for which the result in test [2] was inactive.

For the molecule `Cc1ncsc1-c1ccc(CNC(=O)[C@H]2C[C@H](O)CN2C(=O)[C@@H](NC(=O)COCCOCCOCC(=O)N2CCN(Cc3cccc(Nc4ncc5ccn(CCCNC(=O)C6CCC6)c5n4)c3)CC2)C(C)(C)C)cc1`, the result in test [2] was inactive.

Take `Cc1ncsc1-c1ccc(CNC(=O)[C@@H]2C[C@@H](O)CN2C(=O)[C@H](NC(=O)CCCCC(=O)N2CCN(Cc3cccc(Nc4ncc5ccn(CCCNC(=O)C6CCC6)c5n4)c3)CC2)C(C)(C)C)cc1`: in test [2], the outcome was inactive.

For `Cc1ncsc1-c1ccc(CNC(=O)[C@@H]2C[C@@H](O)CN2C(=O)[C@H](NC(=O)CCC(=O)N2CCN(Cc3cccc(Nc4ncc5ccn(CCCNC(=O)C6CCC6)c5n4)c3)CC2)C(C)(C)C)cc1`, the Activity result in test [2] is recorded as “Active; Compound Exhibited Only Weak Degradation Compared To Control 3I”.

In the case of `O=C1CCC(N2C(=O)c3cccc(NCCCCCC(=O)N4CCN(Cc5cccc(Nc6ncc7ccn(CCCNC(=O)C8CCC8)c7n6)c5)CC4)c3C2=O)C(=O)N1` (stereo unspecified), in test [2], the result was inactive.

For the molecule `COc1ccc(C(=O)/C=C/C(=O)N2CCN(Cc3cccc(Nc4ncc5ccn(CCCNC(=O)C6CCC6)c5n4)c3)CC2)cc1`, the result in test [3] and in test [4] was Active.

Regarding `Cc1ncsc1-c1ccc(CNC(=O)[C@@H]2C[C@@H](O)CN2C(=O)[C@H](NC(=O)CCCCCCCCC(=O)N2CCN(Cc3cccc(Nc4ncc5ccn(CCCNC(=O)C6CCC6)c5n4)c3)CC2)C(C)(C)C)cc1`, the result in test [2] was inactive.

As for `O=C1CCC(N2C(=O)c3cccc(NCCCCCCCCCC(=O)N4CCN(Cc5cccc(Nc6ncc7ccn(CCCNC(=O)C8CCC8)c7n6)c5)CC4)c3C2=O)C(=O)N1` (stereo unspecified), the outcome in test [2] was inactive.

As for `Cc1ncsc1-c1ccc(CNC(=O)[C@@H]2C[C@@H](O)CN2C(=O)[C@H](NC(=O)CCCCCCCCCCC(=O)N2CCN(Cc3cccc(Nc4ncc5ccn(CCCNC(=O)C6CCC6)c5n4)c3)CC2)C(C)(C)C)cc1`, in test [2], the result was inactive.

In test [1], `CC(=O)N1CCN(Cc2cccc(Nc3ncc4ccn(CCCNC(=O)C5CCC5)c4n3)c2)CC1` gave a pIC50 of 6.64. In addition, the inhibition entry in test [5] is “inactive”.
